The source made the active and inactive calls. No cut-off for these calls is given here.
Key:
Bacillus cereus [1] = experiment: Inhibition of Bacillus cereus sphingomyelinase expressed in Bacillus subtilis ISW1214 assessed as sphingomyeline liposome degradation at 20 to 100 uM after 30 mins
Bacillus cereus [2] = experiment: Inhibition of Bacillus cereus sphingomyelinase expressed in Bacillus subtilis ISW1214 assessed as sphingomyeline liposome degradation after 30 mins
[3] = Competitive inhibition of Bacillus cereus sphingomyelinase expressed in Bacillus subtilis ISW1214 after 30 mins by Lineweaver-Burke plot analysis
[4] = Inhibition of Bacillus cereus sphingomyelinase expressed in Bacillus subtilis ISW1214 assessed as [14C]sphingomyeline hydrolysis after 30 mins by liquid scintillation counting

With CCCCCCCCCCCCC/C=C/[C@@H](OCc1cccc(-c2ccccn2)n1)[C@H](CO)NC(=O)CCCCC the inhibition (Bacillus cereus [1]) was “inactive”.
In the case of CCCCCCCCCCCCC/C=C/[C@@H](O)[C@H](COCc1cccc(-c2ccccn2)n1)NC(=O)CCCCC, the inhibition (Bacillus cereus [2]) is reported as “Dose-dependent effect”, the Ki [3] is reported as 5.2 µM and the IC50 [4] is reported as 1.2 µM.
In the case of c1ccc(-c2ccccn2)nc1, the inhibition (Bacillus cereus [1]) is reported as “inactive”.

Reference: ChEMBL document CHEMBL1177793, “Synthesis and evaluation of novel phosphate ester analogs as neutral sphingomyelinase inhibitors” (Bioorg Med Chem Lett, 2010)
